The values that follow come from patent EP0955032A1, “COSMETIC” (Technoble Co., Ltd., priority 1996, dated 1997).

The structures appear in SMILES notation. Values after ≈ are worked out from the molar mass of the structure shown.

For one series, the system named is T1-tyrosinase. The experiment in a line: Experiment 1: SDS electrophoresis of intracellular tyrosinase isozymes (T1). Format: cell-based, mouse. To be noted: 5mM sample, three days; compared with blank culture. On the procedure:
(§1) Cultured B16 mouse melanoma cells (6x10^4 cells) were inoculated to Eagle's minimum essential medium (MEM) containing 5% (v/v) of fetal bovine serum (FBS) and pre-incubated for one day under 5% CO2 at 37° C before 4 days incubation with 0.1% D-glucosamine under the same conditions. Then the culture medium was replaced with one that contained 50mM of adenosine 3',5'-cyclic phosphate (c-AMP) and 5mM of 2,5-acetoxy benzoic acid as the sample, and incubated under 5% CO2 for three days at 37° C.
(§2) For comparison, a separate series of incubation was conducted under the same conditions using the same culture medium without 2,5-diacetoxy benzoic acid, and served as a blank.
(§3) Then the culture samples were analyzed by SDS electrophoresis for detection of B16 mouse melanoma intracellular tyrosinase isozymes. The conditions of the electrophoresis were: gel = polyacrylamide gel (T=7.5% w/v, C=3% w/v); buffer solution = 0.025 M tris- 0.192 M glycine buffer solution (pH = 8.3) containing 0.1% (v/v) sodium dodecyl sulfate (SDS); amount of application = 20uL per well [the mixing ratio of the buffer A (38ml of 0.125M tris-HCl buffer, 10ml of glycerin, 2g of SDS and 3mg of bromphenol blue)/culture sample = 1/1]. The concentration of the sample was adjusted to 1600ug/ml.

The next series relates to cyclooxygenase. Briefly: Experiment 3: inhibition of cyclooxygenase activity (oxygen consumption). Format: biochemical. To be noted: Fig. 3; 1.00ml of 5mM or 10mM solution; compared with blank (purified water). The method, then: A mixture solution was prepared using 3.57ml of 0.2M tris-HCl buffer solution containing 20mM of L-tryptophan, 0.03ml of 40mM hemoglobin solution, 0.20ml of 400unit/ml cyclooxygenase solution, and 1.00ml of 5mM or 10mM 2.5-diacetoxy benzoic acid solution.
For comparison, a mixture using 1.00ml of purified water instead of 1.00ml of 2,5-diacetoxy benzoic acid was prepared to serve as a blank.
The mixture was incubated for five minutes at 37° C, and then 0.20ml of 0.2M tris-HCl buffer solution containing 2mM of arachidonic acid was added to the mixture for cyclooxygenase reaction. Immediately after the reaction started, the amount of dissolved oxygen in the reaction solution was measured using a biological oxygen monitor (YSI Model 5300, Meridian Instruments Far East, Ltd.). On the basis of the measurement of the dissolved oxygen level, the change in oxygen consumption attendant on the progress of the reaction time was determined.
It is believed that the less the oxygen consumption, the more the cyclooxygenase was inhibited.

Another series deals with T1, intracellular tyrosinase (Mus musculus, UniProt P11344).
T1 construct: endogenous in cells; host or cells: B16 mouse melanoma cells
T1 sequence (P11344 19-533): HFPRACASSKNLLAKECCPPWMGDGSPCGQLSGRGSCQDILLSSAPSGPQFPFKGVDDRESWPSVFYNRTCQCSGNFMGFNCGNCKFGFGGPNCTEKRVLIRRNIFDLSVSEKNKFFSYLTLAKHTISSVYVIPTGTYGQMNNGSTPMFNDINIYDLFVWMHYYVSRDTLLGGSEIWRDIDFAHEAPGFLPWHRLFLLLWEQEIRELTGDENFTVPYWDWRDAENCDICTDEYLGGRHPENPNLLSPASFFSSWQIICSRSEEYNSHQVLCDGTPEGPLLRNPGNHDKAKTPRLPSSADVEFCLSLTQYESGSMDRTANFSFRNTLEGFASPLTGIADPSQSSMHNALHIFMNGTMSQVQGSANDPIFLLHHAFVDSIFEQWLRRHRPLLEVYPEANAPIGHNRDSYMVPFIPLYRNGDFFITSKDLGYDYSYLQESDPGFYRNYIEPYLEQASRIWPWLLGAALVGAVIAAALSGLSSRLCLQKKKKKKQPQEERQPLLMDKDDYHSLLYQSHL
Briefly: Experiments 2 and 5: inhibition of intracellular tyrosinase activity (Dopa value). The format is cell-based. Particulars: for Dopa value: Fig. 1, 2.5mM or 5mM DABA, 2.5mM DAPECSAM, two days, compared with blank and with DHBA at the same concentration. On the procedure:
(§4) Cultured B16 mouse melanoma cells were inoculated to a 96-well microplate (Corning Ltd.) at the rate of 8000 cells /well and pre-incubated in the Eagle's MEM containing 5% (v/v) FBS for one day under 5% CO2 at 37° C. After the pre-incubation, the culture medium was replaced with the Eagle's MEM containing 5% FBS, also containing 2.5mM or 5mM 2,5-diacetoxy benzoic acid or 2.5mM of 2-(2',5'-diacetoxy-benzoiloxy) benzoic acid, whereupon incubation was continued for two days under 5% CO2 at 37° C.
(§5) After the incubation, the medium was removed and a surfactant (Triton X-100) was mixed with the cells. Then 5mM of L-dopa or 0.2% of 3-(4,5-dimethylthiazol-2-yl)-2,5-diphenyltetrazorium bromide (MTT) was mixed for tyrosinase reaction at 37° C. Then the Dopa value and MTT test value were measured at the wavelength of 490nm and 570-630nm respectively using a microplate reader (Model 450, Bio Rad Ltd.).
(§6) For comparison, two series of culture with 2.5mM or 5mM of 2.5-dihydroxy benzoic acid instead of the compounds used in the present invention, as well as a culture without compound were prepared to serve as the positive controls and blank respectively.
(§7) It is believed that the higher the Dopa value, the higher the intracellular tyrosinase activity, while the lower the MTT test value, the lower the cultured B16 mouse melanoma cell activity.
(§8) The compound expressed by Formula A was used as an example of the 2,5-dihydroxy benzoic acid derivatives to evaluate its inhibitory effect on intracellular tyrosinase activity in accordance with the same protocol as followed in Experiment 2. [drawing 23]
(§9) However, the concentration was set to 2.5mM and the compound was dissolved in dimethyl sulfoxide before being applied to the culture medium.
(§10) The medium containing dimethyl sulfoxide was used for the blank culture. The results are shown in the graphs in Fig. 4 (Dopa levels) and Fig. 5 (MTT levels).

Another series is described as follows: in vitro. Particulars: rabbit, sirc-c cells. The format is cell-based. On the procedure: Cultured rabbit cornea cells (SIRC-C) were inoculated to a 96-well microplate (Corning Ltd.) at the rate of 5000 cells/well, and pre-incubated with Eagle's MEM containing 5% (v/v) FBS for one day under 5% CO2 at 37° C. Then 0.2ml of Eagle's MEM containing 0.05% neutral red was added to the culture medium and incubation was continued for two days under the same conditions. Furthermore, 2,5-diacetoxy benzoic acid was added to the culture medium at the concentrations of 0.025% (w/v) (10.5mM), 0.05% (w/v) (21mM), 0.1% (w/v) (42mM) or 0.2% (w/v) (84mM) and incubated again for two days under 5% CO 2 at 37° C.
For comparison, cultures with 30ug/ml, 60ug/ml or 90ug/ml of sodium dodecyl sulfate instead of 2,5-diacetoxy benzoic acid and without any compound were prepared and served as the positive control and the blank respectively.
The cultures were tested by analyzing SIRC-C neutral red intake, which is one of the alternative methods of eye-irritation test, and the midpoint cytotoxicity (NR50) value was derived from the neutral red intake rate to evaluate the potential irritation effect.
It is believed that, since the neutral red intake decreases with the increase in the irritation of the compound to SIRC-C, the higher the NR50 concentration of the sample solution, the lower the irritation to the cells.

Series [1] deals with B16 mouse melanoma cells. The experiment in a line: Experiment 1: gross observation of cell pellets after culture with sample. Format: cell-based. To be noted: 5mM sample with 50mM c-AMP, three days; compared with blank culture. On the procedure:
as §1, §2
After the incubation, the cells were isolated from the medium by centrifugation and made into a pellet.

The subject of another series is T3-tyrosinase. The experiment in a line: Experiment 1: SDS electrophoresis of intracellular tyrosinase isozymes (T3). The format is cell-based, mouse. To be noted: 5mM sample, three days; compared with blank culture. The method, then:
as §1, §2, §3

Series [2] relates to B16 mouse melanoma cells. The experiment in a line: Experiments 2 and 5: MTT test value (cell activity). Format: cell-based. To be noted: for MTT value: Fig. 2, 2.5mM or 5mM DABA, 2.5mM DAPECSAM, two days, compared with DHBA cultures and blank. The method, then:
as §4, §5, §6, §7, §8, §9, §10

`CC(=O)Oc1ccc(OC(C)=O)c(C(=O)O)c1` [DABA, 2,5-diacetoxy benzoic acid]: the “band of T1-tyrosinase” value in the series with T1-tyrosinase is recorded as “significantly reduced”. Also, the “increase in oxygen consumption attendant upon progress of reaction time” value with cyclooxygenase is “much lower”. In addition, the Dopa value entry on intracellular tyrosinase is recorded as “much lower than that of the blank”. For the same compound, at intracellular tyrosinase (within a concentration range that did not inhibit cell activity), the “inhibitory effect on intracellular tyrosinase compared with kojic acid and albutin” value is listed as “the same or even higher”. Besides, the CC50 (in general, the concentration giving 50% cytotoxicity) at 48 h in the series “in vitro” lay in the range of 1000 to 2000 µg/mL (≈ 4.2 to 8.4 mM). The “gross observation of pellets” value with B16 mouse melanoma cells [1] is given as “significantly whitened”. For the same compound, the T3-tyrosinase band entry in the series on T3-tyrosinase was “disappeared”. In addition, the MTT value entry in the series on B16 mouse melanoma cells [2] was “not much lower”.
For `COC(=O)c1ccccc1OC(=O)c1cc(OC(C)=O)ccc1OC(C)=O` [DAPECSAM, 2-(2'5'-diacetoxy-benzoiloxy) benzoic acid methyl ester], the Dopa value result at intracellular tyrosinase is on record as “much lower than that of the blank”. Further, the MTT value entry in the series on B16 mouse melanoma cells [2] is “not much lower”.
For the compound `COC(=O)c1ccccc1OC(=O)c1cc(OC(C)=O)ccc1OC(C)=O` [Formula A], the “intracellular tyrosinase activity (Dopa levels)” value on intracellular tyrosinase (Experiment 5, Fig. 4, 2.5mM, dissolved in dimethyl sulfoxide, blank with dimethyl sulfoxide) was “significantly inhibited”. In the series with B16 mouse melanoma cells [2] (Experiment 5, Fig. 5, 2.5mM, dissolved in dimethyl sulfoxide, blank with dimethyl sulfoxide), the “cell activity (MTT levels)” value is recorded as “not the cell activity”.
`CCCCCCCCCCCCOS(=O)(=O)[O-].[Na+]` [SDS, sodium dodecyl sulfate, reference compound] came in with a CC50 at 48 h in “in vitro” of about 60 µg/mL.
